These results are taken from patent publication US9221809B2 (MERCK SHARP & DOHME CORP., priority 2011, dated 2015).

A word on the IC50: it is the concentration that inhibits the measured activity by half.

This assay addresses IRAK4 (Homo sapiens (Human), UniProt Q9NWZ3). Kind of assay: IRAK4 kinase activity, IMAP fluorescence polarization assay. The format is biochemical. To be noted: 100 μM ATP. How it is done: The kinase activity of IRAK4 is determined by its ability to catalyze the phosphorylation of a fluorescent polypeptide substrate. The extent of phosphorylation is measured using IMAP technology (Molecular Devices) where the phosphorylated fluorescent substrate binds to the large M(III)-based nanoparticles which reduces the rotational speed of the substrate and thus increases its fluorescent polarization (FP).
Assay Procedure: A 20 μl reaction mixture contains 10 mM TriHCl, pH 7.2, 0.5 nM GST tagged IRAK4 (SignalChem), 100 nM fluorescent peptide substrate (RP7030, Molecular Devices), 100 μM ATP, 1 mM DTT, 1 mM MgCl2, and 0.01% Tween 20. The reaction is initiated by the addition of ATP. After incubation for 30 minutes at 25° C., 60 μl of Progressive IMAP Reagent (Molecular Devices) is added to stop the reaction. Change in RP7030's FP is determined by a FP reader (Analyst HT, LJL BioSystems)
A general note: In fluorescence polarisation assays a small probe gives low polarisation when free and higher when bound to something large.

Setting [1] is: 0.5 nM GST tagged IRAK4, read-out: IRAK4 IC50.

Molecules are shown by their SMILES. Counter-ions that a name gives are not always drawn. Like-named read-outs stand apart in the source and are kept apart here.

Sequence of IRAK4 (Q9NWZ3 whole entry): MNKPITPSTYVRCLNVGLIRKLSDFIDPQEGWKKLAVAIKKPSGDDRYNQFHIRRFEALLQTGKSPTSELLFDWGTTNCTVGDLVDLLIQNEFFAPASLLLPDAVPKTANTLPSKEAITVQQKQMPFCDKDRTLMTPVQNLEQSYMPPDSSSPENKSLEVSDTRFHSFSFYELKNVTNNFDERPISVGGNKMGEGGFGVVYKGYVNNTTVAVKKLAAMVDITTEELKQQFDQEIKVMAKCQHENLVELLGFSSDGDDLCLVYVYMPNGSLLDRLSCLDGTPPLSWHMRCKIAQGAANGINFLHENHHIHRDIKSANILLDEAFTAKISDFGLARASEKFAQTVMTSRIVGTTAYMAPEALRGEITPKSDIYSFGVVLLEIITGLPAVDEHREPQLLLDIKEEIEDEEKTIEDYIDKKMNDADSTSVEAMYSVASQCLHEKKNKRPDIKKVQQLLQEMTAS

Take `O=c1[nH]c(N[C@@H]2CCCNC2)nc(N[C@@H]2C[C@H](CO)[C@@H](O)[C@H]2O)c1-c1nc2ccccc2s1` [Example 38, 5-(Benzo[d]thiazol-2-yl)-6-(((1R,2S,3R,4R)-2,3-dihydroxy-4-(hydroxymethyl)cyclopentyl)amino)-2-((R)-piperidin-3-ylamino)pyrimidin-4(3H)-one.HCl]: under setting [1], the IC50 was 5120 nM.

In the case of `O=c1[nH]c(N2CCOCC2)nc(N[C@@H]2CCNC2)c1-c1nc2ccccc2s1` [Example 87, (R)-5-(Benzo[d]thiazol-2-yl)-2-morpholino-6-(pyrrolidin-3-ylamino)pyrimidin-4(3H)-one.HCl], the IC50 under setting [1] came out at 36 nM.

With `O=c1[nH]c(NC2CCOCC2)nc(N[C@@H]2C[C@H](CO)[C@@H](O)[C@H]2O)c1-c1nc2ccccc2s1` [Example 8, 5-(Benzo[d]thiazol-2-yl)-6-((1R,2S,3R,4R)-2,3-dihydroxy-4-(hydroxymethyl)cyclopentylamino)-2-(tetrahydro-2H-pyran-4-ylamino)pyrimidin-4(3H)-one.HCl], the IC50 under setting [1] came to 575 nM.

In the case of `Cc1cnccc1N1CCN(c2nc(N[C@@H]3CCCNC3)c(-c3nc4ccccc4s3)c(=O)[nH]2)CC1` [Example 158, (R)-5-(benzo[d]thiazol-2-yl)-2-(4-(3-methylpyridin-4-yl)piperazin-1-yl)-6-(piperidin-3-ylamino)pyrimidin-4(3H)-one], the IC50 (read-out: IRAK4 IC50) is 8 nM.

With `N#Cc1ccc(-c2c(N[C@@H]3CCCNC3)nc(N3CCOCC3)[nH]c2=O)nc1` [Example 223, (R)-6-(2-morpholino-6-oxo-4-(piperidin-3-ylamino)-1,6-dihydropyrimidin-5-yl)nicotinonitrile], the IC50 (read-out: IC50) is 81 nM.

Turning to `C[C@H]1C[C@@H](Nc2nc(N3CCOCC3)[nH]c(=O)c2-c2nc3ccccc3s2)CN1` [Example 209, 5-(benzo[d]thiazol-2-yl)-6-(((3R,5S)-5-methylpyrrolidin-3-yl)amino)-2-morpholinopyrimidin-4(3H)-one], the IC50 (read-out: IC50) stood at 359 nM.

Take `CN1CCCC(Nc2nc(N3CCOCC3)[nH]c(=O)c2-c2ccc3ccccc3n2)C1` (stereo not shown) [Example 274, 6-[(1-methylpiperidin-3-yl)amino]-2-(morpholin-4-yl)-5-(quinolin-2-yl)-3,4-dihydropyrimidin-4-one]: the IC50 (read-out: IC50) is 720 nM.

As to `O=c1[nH]c(N2CCn3cc(C(F)(F)F)nc3C2)nc(N[C@@H]2CCCNC2)c1-c1nc2ccccc2s1` [Example 140, (R)-5-(benzo[d]thiazol-2-yl)-6-(piperidin-3-ylamino)-2-(2-(trifluoromethyl)-5,6-dihydroimidazo[1,2-a]pyrazin-7(8H)-yl)pyrimidin-4(3H)-one], the IC50 (read-out: IRAK4 IC50) is 113 nM.

Consider `COc1ccc(N2CCN(c3nc(N[C@@H]4CCCNC4)c(-c4nc5ccccc5s4)c(=O)[nH]3)CC2)nc1` [Example 141, (R)-5-(benzo[d]thiazol-2-yl)-2-(4-(5-methoxypyridin-2-yl)piperazin-1-yl)-6-(piperidin-3-ylamino)pyrimidin-4(3H)-one], for which the IC50 (read-out: IRAK4 IC50) amounted to 5 nM.

For `Cc1cnc(C)c(N2CCN(c3nc(N[C@@H]4CCCNC4)c(-c4nc5ccccc5s4)c(=O)[nH]3)CC2)n1` [Example 160, (R)-5-(benzo[d]thiazol-2-yl)-2-(4-(3,6-dimethylpyrazin-2-yl)piperazin-1-yl)-6-(piperidin-3-ylamino)pyrimidin-4(3H)-one], under “read-out: IRAK4 IC50”, the IC50 was 22 nM.

Turning to `O=c1[nH]c(N2CC3CC3C2)nc(N[C@@H]2CCCNC2)c1-c1ccc2ccccc2n1` (stereo partly drawn) [Example 168, 2-(3-azabicyclo[3.1.0]hexan-3-yl)-6-((R)-piperidin-3-ylamino)-5-(quinolin-2-yl)pyrimidin-4(3H)-one], the IC50 (read-out: IRAK4 IC50) is 34 nM.

With `C[C@@H]1CC[C@@H](Nc2nc(N3CCOCC3)[nH]c(=O)c2-c2ccc3ccccc3n2)CN1` (racemic) [Example 121, 6-(methylpiperidin-3-yl)amino-2-morpholino-5-(quinolin-2-yl)pyrimidin-4(3H)-one.HCl], the IC50 under setting [1] was found to be 38 nM.

For `O=c1[nH]c(Nc2ccncc2)nc(N[C@@H]2C[C@H](CO)[C@@H](O)[C@H]2O)c1-c1nc2ccccc2s1` [Example 54, 5-(Benzo[d]thiazol-2-yl)-6-((1R,2S,3R,4R)-2,3-dihydroxy-4-(hydroxymethyl)cyclopentylamino)-2-(pyridin-4-ylamino)pyrimidin-4(3H)-one.HCl], the IC50 under setting [1] was 654 nM.

In the case of `O=c1[nH]c(N2CCCCC2)nc(N[C@@H]2C[C@H](CO)[C@@H](O)[C@H]2O)c1-c1ccc2ccccc2n1` [Example 19, 6-((1R,2S,3R,4R)-2,3-Dihydroxy-4-(hydroxymethyl)cyclopentylamino)-2-(piperidin-1-yl)-5-(quinolin-2-yl)pyrimidin-4(3H)-one.HCl], the IC50 under setting [1] was 23 nM.

On to `O=c1[nH]c(N2CCOCC2)nc(N[C@H]2CNCC(F)(F)C2)c1-c1nc2ccccc2s1` [Example 212, (R)-5-(benzo[d]thiazol-2-yl)-6-((5,5-difluoropiperidin-3-yl)amino)-2-morpholinopyrimidin-4(3H)-one], for which, under “read-out: IC50”, the IC50 was 792 nM.

For `O=C1CCCN1c1cccc(-c2c(N[C@@H]3CCCNC3)nc(N3CCOCC3)[nH]c2=O)n1` [Example 216, (R)-2-morpholino-5-(6-(2-oxopyrrolidin-1-yl)pyridin-2-yl)-6-(piperidin-3-ylamino)pyrimidin-4(3H)-one], the IC50 (read-out: IC50) was found to be 258 nM.

For the molecule `CN(c1nc(N[C@@H]2CCCNC2)c(-c2nc3ccccc3s2)c(=O)[nH]1)[C@H](CO)c1ccccc1` [Example 310, 5-(1,3-benzothiazol-2-yl)-2-[[(1S)-2-hydroxy-1-phenylethyl](methyl)amino]-6-[[(3R)-piperidin-3-yl]amino]-3,4-dihydropyrimidin-4-one; trifluoroacetic acid], the IC50 (read-out: IC50) worked out at 250 nM.

Regarding `O=c1[nH]c(N2CC3CC2CS(=O)(=O)C3)nc(N[C@@H]2CCCNC2)c1-c1ccc2ccccc2n1` (stereo partly drawn) [Example 174, 2-(3,3-dioxido-3-thia-6-azabicyclo[3.2.1]octan-6-yl)-6-((R)-piperidin-3-ylamino)-5-(quinolin-2-yl)pyrimidin-4(3H)-one], the IC50 (read-out: IRAK4 IC50) worked out at 139 nM.

For the molecule `O=c1[nH]c(N2CCN(c3cccnc3)CC2)nc(N[C@@H]2CCCNC2)c1-c1nc2ccccc2s1` [Example 138, (R)-5-(benzo[d]thiazol-2-yl)-6-(piperidin-3-ylamino)-2-(4-(pyridin-3-yl)piperazin-1-yl)pyrimidin-4(3H)-one], the IC50 (read-out: IRAK4 IC50) was determined as 6 nM.

For the molecule `O=c1[nH]c(N2CCN(c3ncc(C(F)(F)F)cc3Cl)CC2)nc(N[C@@H]2CCCNC2)c1-c1nc2ccccc2s1` [Example 133, (R)-5-(benzo[d]thiazol-2-yl)-2-(4-(3-chloro-5-(trifluoromethyl)pyridin-2-yl)piperazin-1-yl)-6-(piperidin-3-ylamino)pyrimidin-4(3H)-one], the IC50 (read-out: IRAK4 IC50) was found to be 17 nM.

With `NC1CCCC(Nc2nc(N3CCOCC3)[nH]c(=O)c2-c2nc3ccccc3s2)C1` (stereo not shown) [Example 90, 6-(3-Aminocyclohexylamino)-5-(benzo[d]thiazol-2-yl)-2-morpholinopyrimidin-4(3H)-one.HCl], the IC50 under setting [1] was 258 nM.

On to `O=c1[nH]c(NC2CCC2)nc(N[C@@H]2C[C@H](CO)[C@@H](O)[C@H]2O)c1-c1cscn1` [Example 23, 2-(Cyclobutylamino)-6-((1R,2S,3R,4R)-2,3-dihydroxy-4-(hydroxymethyl)cyclopentylamino)-5-(thiazol-4-yl)pyrimidin-4(3H)-one.HCl], for which, under setting [1], the IC50 was 1790 nM.
